Measured values as given in patent publication US9630958B2, “Triazine compounds” (Sphaera Pharma Pte. Ltd., priority 2012, dated 2017).

Assays:
Recombinant mTOR (FRAP1) = target: T1, Recombinant mTOR (FRAP1) (Homo sapiens, UniProt P42345); experiment: mTOR in vitro kinase assay (TR-FRET, phosphorylation of GFP-4E-BP1); format: biochemical; details: for IC50: 8 μM ATP, 400 nM GFP-4E-BP1; for inhibition at 1 µM: 1 uM compound, read-out: mTOR % Inhib@1 uM
T1 construct: purchased Invitrogen
Description: Compounds were evaluated for mTOR activity using an in vitro kinase assay.
mTOR activity is measured in vitro by determining the level of phosphorylation of the protein substrate 4EBP-1. The phosphorylation of GFP-4E-BP1 at threonine residue is recognized by Ab Tb-Anti-p4EBP1, which results in time resolved fluorescence energy transfer (TR-FRET) between GFP and Terbium in the Ab-Protein complex.
Recombinant mTOR (FRAP1), Kinase reaction buffer, GFP-4E-BP1 and LanthaScreen Tb-anti-4E-BP1 (pThr46), TR FRET dilution buffer, Kinase Quench Buffer were obtained from Invitrogen.
Kinase reactions were performed in 10 μl volume in Corning white 384 well plates. […] The reaction was initiated by the addition of substrate (GFP-4E-BP1) and ATP at a final conc. of 400 nM and 8 μM ATP in the reaction respectively. The kinase reaction was allowed to proceed for 1 hour at room temperature before a 10 μL preparation of kinase quench buffer and Tb-labeled Antibody in TR-FRET dilution buffer was added. The final concentration of the antibody in the assay well is 2 nM and the final concentration of EDTA is 10 mM. The plate was incubated at room temperature for 1 h.
(§1) FRET signal was read in Envision Multilabel Reader with the following filters:
Excitation-330 nm and Emission 486 nm (donor) and 520 nm (acceptor).
TR FRET Ratio (Fluorescence 520 nm/Fluorescence 486 nm) was plotted against the concentration of inhibitor and data was fit to Non Linear Regression curve fit (sigmoidal dose response curve with variable slope-four parameters) using Graph Pad Prism 5.

[1] = target: T2, PI3 Kinase alpha (p110 alpha/p85 alpha) (Homo sapiens, UniProt P42336); experiment: PI3K TR-FRET assay (Transcreener ADP2); format: biochemical; details: for inhibition at 1 µM: 1 uM compound, read-out: PI3K % Inhib@1 uM; for IC50: PI3K alpha, 1 μM ATP, 50 μM PIP2
T2 construct: purchased Invitrogen
Description: Enzymatic activity of PI3K alpha was measured using Time resolved Fluorescence resonance energy transfer (TR-FRET) assay. This assay utilizes ADP detection as a means to screen inhibitor potency of compounds. The Transcreener ADP2 TR-FRET Red Assay is a competitive immunoassay for ADP with a far-red, TR-FRET readout and it has been used for this purpose. The assay can be used for any enzyme class that produces ADP (Kinases, ATPases). It consists of ADP HiLyte647 Tracer, ADP^2 Antibody-Tb conjugate (800 nM), stop & detect buffer, 5 mM ATP, 5 mM ADP. The ADP HiLyte647 Tracer is bound to an ADP^2 Antibody-Tb conjugate. The excitation of the terbium complex in the UV range results in energy transfer to the tracer and emission at a higher wavelength after a time delay ADP produced by the target enzyme displaces the tracer which causes decrease in TR-FRET.
The reaction buffer used for the assay was 50 mM HEPES, pH 7.4.3 mM MgCl2, 0.05% CHAPS, 50 mM NaCl, 2 mM DTT, 1 mM EGTA. PI3 Kinase alpha (p110 alpha/p85 alpha) and PIP2 Substrate (diC8,) were procured from Invitrogen and Echelon respectively.
Kinase reactions were performed in 10 μl volume in Corning white 384 well plates. […] Reaction was initiated by the addition of substrate (PIP2) and ATP at final conc. of 50 μM and 1 μM ATP in the reaction respectively. Kinase reactions were allowed to proceed for 1 hour at room temperature before a 10 μL preparation of Transcreener ADP detection mix was added. Plate was incubated at room temperature for 1 hr. ADP-ATP standard curves were also prepared.
as §1
Excitation-330 nm and Emission 615 nm (donor) and 665 nm (acceptor). TR FRET Ratio (Fluorescence 665 nm/Fluorescence 615 nm) was converted to amount of product formed using the standard curve generated. Percentage inhibition was calculated and plotted against the concentration of inhibitor and data was fit to Non Linear Regression curve fit (sigmoidal dose response curve with variable slope-four parameters) using Graph pad prism 5 and IC50 was calculated for the compound.

T1 sequence (P42345 1360-2549 limits assumed): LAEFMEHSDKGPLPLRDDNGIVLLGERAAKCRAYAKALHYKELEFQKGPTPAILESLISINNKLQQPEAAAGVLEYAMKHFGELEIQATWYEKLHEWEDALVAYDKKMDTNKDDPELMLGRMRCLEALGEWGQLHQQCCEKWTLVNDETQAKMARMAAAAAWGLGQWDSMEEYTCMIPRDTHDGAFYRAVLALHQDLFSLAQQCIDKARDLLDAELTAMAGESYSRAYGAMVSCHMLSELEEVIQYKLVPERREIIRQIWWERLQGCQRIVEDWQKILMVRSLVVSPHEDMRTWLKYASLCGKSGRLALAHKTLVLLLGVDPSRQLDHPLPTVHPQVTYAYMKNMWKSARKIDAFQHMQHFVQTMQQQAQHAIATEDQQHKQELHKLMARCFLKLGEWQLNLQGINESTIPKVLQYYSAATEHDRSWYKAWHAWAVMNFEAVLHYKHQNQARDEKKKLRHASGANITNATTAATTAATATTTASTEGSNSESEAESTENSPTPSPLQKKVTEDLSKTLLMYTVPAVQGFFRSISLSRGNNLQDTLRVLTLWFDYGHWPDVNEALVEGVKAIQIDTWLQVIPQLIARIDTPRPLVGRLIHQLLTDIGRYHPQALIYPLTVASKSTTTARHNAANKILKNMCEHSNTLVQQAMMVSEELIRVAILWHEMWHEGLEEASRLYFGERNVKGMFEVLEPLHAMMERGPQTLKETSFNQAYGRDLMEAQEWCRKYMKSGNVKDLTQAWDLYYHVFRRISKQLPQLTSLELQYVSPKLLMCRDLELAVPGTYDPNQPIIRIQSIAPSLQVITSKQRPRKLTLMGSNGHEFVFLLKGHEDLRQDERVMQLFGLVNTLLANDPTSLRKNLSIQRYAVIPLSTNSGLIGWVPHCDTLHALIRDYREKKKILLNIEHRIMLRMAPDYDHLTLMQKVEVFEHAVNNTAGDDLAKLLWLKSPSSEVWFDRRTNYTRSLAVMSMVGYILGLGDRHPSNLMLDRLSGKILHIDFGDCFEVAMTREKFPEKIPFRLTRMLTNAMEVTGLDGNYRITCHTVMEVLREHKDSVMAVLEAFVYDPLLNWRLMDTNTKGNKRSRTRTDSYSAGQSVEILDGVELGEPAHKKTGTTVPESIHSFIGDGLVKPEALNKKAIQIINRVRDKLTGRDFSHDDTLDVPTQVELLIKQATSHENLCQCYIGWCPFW
T2 sequence (P42336 whole entry): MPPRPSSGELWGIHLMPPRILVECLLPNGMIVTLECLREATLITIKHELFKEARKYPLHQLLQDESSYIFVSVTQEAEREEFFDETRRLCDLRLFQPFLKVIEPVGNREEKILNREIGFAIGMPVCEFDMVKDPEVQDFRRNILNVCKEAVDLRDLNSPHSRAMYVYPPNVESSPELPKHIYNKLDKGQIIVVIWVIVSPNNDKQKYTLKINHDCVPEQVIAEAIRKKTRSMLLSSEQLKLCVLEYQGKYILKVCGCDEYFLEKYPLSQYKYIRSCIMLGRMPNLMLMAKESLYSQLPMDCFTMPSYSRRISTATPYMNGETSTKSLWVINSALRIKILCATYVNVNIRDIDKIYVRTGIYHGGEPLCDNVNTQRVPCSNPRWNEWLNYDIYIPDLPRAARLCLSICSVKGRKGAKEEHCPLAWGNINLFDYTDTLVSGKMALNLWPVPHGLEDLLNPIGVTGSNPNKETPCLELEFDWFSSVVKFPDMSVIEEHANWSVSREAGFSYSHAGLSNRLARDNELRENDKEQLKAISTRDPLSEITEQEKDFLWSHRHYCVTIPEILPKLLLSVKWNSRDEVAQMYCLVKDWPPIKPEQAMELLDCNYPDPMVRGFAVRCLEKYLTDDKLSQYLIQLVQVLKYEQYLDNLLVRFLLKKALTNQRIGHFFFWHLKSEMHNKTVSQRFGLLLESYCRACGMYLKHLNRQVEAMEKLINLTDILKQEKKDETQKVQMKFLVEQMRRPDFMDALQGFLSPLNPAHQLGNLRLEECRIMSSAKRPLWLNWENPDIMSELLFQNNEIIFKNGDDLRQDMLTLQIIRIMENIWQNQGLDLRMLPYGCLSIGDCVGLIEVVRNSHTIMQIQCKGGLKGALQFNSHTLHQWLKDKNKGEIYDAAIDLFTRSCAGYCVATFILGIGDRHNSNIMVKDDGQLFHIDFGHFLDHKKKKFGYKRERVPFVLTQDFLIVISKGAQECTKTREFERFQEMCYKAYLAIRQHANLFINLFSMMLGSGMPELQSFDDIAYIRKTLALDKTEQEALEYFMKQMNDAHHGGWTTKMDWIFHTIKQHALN
T2 sequence (P27986 whole entry partner): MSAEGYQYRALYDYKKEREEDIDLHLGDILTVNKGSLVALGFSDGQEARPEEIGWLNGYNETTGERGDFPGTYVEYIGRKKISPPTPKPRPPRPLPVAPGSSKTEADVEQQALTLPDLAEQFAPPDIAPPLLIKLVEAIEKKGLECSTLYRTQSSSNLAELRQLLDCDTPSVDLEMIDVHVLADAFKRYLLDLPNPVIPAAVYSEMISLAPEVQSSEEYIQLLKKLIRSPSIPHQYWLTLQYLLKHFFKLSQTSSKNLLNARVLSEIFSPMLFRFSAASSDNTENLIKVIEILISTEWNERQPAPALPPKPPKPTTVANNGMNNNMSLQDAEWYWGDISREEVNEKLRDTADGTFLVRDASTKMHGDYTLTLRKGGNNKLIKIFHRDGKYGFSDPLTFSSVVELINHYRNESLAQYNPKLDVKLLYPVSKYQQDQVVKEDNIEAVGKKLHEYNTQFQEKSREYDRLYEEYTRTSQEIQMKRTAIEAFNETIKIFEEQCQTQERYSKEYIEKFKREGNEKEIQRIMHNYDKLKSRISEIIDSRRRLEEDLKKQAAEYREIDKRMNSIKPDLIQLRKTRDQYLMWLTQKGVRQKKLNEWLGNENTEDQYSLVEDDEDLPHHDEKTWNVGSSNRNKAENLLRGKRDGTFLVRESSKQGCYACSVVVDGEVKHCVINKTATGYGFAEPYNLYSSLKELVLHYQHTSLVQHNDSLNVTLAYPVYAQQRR

SMILES: C[C@@H]1COCCN1c1nc(Oc2ccc(C(=O)N(C)C)cc2F)nc(-c2ccc(N)nc2)n1 [Compound 10099, (R)-4-((4-(6-Aminopyridin-3-yl)-6-(3-methylmorpholino)-1,3,5-triazin-2-yl)oxy)-3-fluoro-N,N-dimethylbenzamide]
- IC50 (Recombinant mTOR (FRAP1)): < 1000 nM
- inhibition at 1 µM [1]: > 50%
- IC50 [1]: < 1000 nM

SMILES: NC(=O)c1ccc(Oc2nc(-c3cnc(N)s3)nc(N3CCOCC3)n2)cc1 [Compound 10201, 4-((4-(2-aminothiazol-5-yl)-6-morpholino-1,3,5-triazin-2-yl)oxy)benzamide]
- inhibition at 1 µM (Recombinant mTOR (FRAP1)): < 50%
- IC50 [1]: < 1000 nM

SMILES: CN(C)C(=O)c1ccc(Oc2nc(-c3cnc(N)s3)nc(N3CCO[C@@H]4CCC[C@@H]43)n2)c(F)c1 [Compound 10206]
- IC50 (Recombinant mTOR (FRAP1)): < 1000 nM

SMILES: CN(C)C(=O)c1ccc(Oc2nc(-c3ccc4[nH]ncc4c3)nc(N3CC4CCC(C3)O4)n2)c(F)c1 [Compound 10140, 4-(4-(8-oxa-3-aza-bicyclo[3.2.1]octan-3-yl)-6-(1H-indazol-5-yl)-1,3,5-triazin-2-yloxy)-3-fluoro-N,N-dimethylbenzamide]
- inhibition at 1 µM (Recombinant mTOR (FRAP1)): > 50%
- IC50 (Recombinant mTOR (FRAP1)): < 1000 nM
- IC50 [1]: > 10000 nM

SMILES: C[C@@H]1CN(c2nc(Oc3ccc(C(=O)N(C)C)cc3F)nc(-c3cnc(N)s3)n2)C[C@@H](C)O1 [Compound 10070, 4-((4-2-Aminothiazol-5-yl)-6-((2R,6R)-2,6-dimethylmorpholino)-1,3,5-triazin-2-yl)oxy-3-fluoro-N,N-dimethylbenzamide]
- IC50 (Recombinant mTOR (FRAP1)): < 1000 nM

SMILES: C[C@H]1COCCN1c1nc(Oc2ccc(C(=O)N(C)C)cc2F)nc(-c2ccc3[nH]ncc3c2)n1 [Compound 10051, (S)-4-((4-(1H-indazol-5-yl)-6-(3-methylmorpholino)-1,3,5-triazin-2-yl)oxy)-3-fluoro-N,N-dimethylbenzamide]
- inhibition at 1 µM (Recombinant mTOR (FRAP1)): > 50%
- IC50 (Recombinant mTOR (FRAP1)): < 1000 nM
- IC50 [1]: > 1000 nM

SMILES: CN(C)C(=O)c1ccc(Oc2nc(Nc3nccs3)nc(N3CCOCC3)n2)cc1 [Compound 10191, N,N-dimethyl-4-((4-morpholino-6-(thiazol-2-ylamino)-1,3,5-triazin-2-yl)oxy)benzamide]
- inhibition at 1 µM (Recombinant mTOR (FRAP1)): < 50%
- IC50 [1]: > 1000 nM

SMILES: CN(C)C(=O)c1ccc(Oc2nc(-c3cnc4[nH]ccc4c3)nc(N3CCOCC3)n2)c(F)c1 [Compound 10158, 4-(4-morpholino-6-(1H-pyrrolo[2,3-b]pyridin-5-yl)-1,3,5-triazin-2-yloxy)-3-fluoro-N,N-dimethylbenzamide]
- IC50 (Recombinant mTOR (FRAP1)): < 1000 nM
- IC50 [1]: < 1000 nM

SMILES: CN(C)C(=O)c1ccc(Oc2nc(-c3cnc(N)s3)nc(N3CCO[C@@H]4CCC[C@H]43)n2)cc1 [Compound 10132, 4-(4-(2-aminothiazol-5-yl)-6-((4aR,7aR)-hexahydrocyclopenta[b][1,4]oxazin-4(4aH)-yl)-1,3,5-triazin-2-yloxy)-N,N-dimethylbenzamide]
- inhibition at 1 µM (Recombinant mTOR (FRAP1)): > 50%
- IC50 (Recombinant mTOR (FRAP1)): < 1000 nM
- inhibition at 1 µM [1]: < 50%
- IC50 [1]: < 1000 nM

SMILES: C[C@H]1CN(c2nc(Oc3ccc(C(=O)N(C)C)cc3)nc(-c3cnc(N)s3)n2)CCO1 [Compound 10127, 4-(4-(2-aminothiazol-5-yl)-6-((S)-2-methylmorpholino)-1,3,5-triazin-2-yloxy)-N,N-dimethylbenzamide]
- inhibition at 1 µM (Recombinant mTOR (FRAP1)): > 50%
- IC50 (Recombinant mTOR (FRAP1)): < 1000 nM
- inhibition at 1 µM [1]: > 50%
- IC50 [1]: < 1000 nM

SMILES: C[C@H]1COCCN1c1nc(Oc2ccc(C(=O)N(C)C)cc2F)nc(-c2cnc(N)nc2)n1 [Compound 10204, (S)-4-((4-(2-aminopyrimidin-5-yl)-6-(3-methylmorpholino)-1,3,5-triazin-2-yl)oxy)-3-fluoro-N,N-dimethylbenzamide]
- IC50 (Recombinant mTOR (FRAP1)): < 1000 nM
- IC50 [1]: < 1000 nM

SMILES: C[C@H]1CN(c2nc(Oc3ccc(C(=O)N(C)C)cc3F)nc(-c3cnc(N)s3)n2)[C@@H](C)[C@@H](C)O1 [Compound 10088, 4-((4-(2-Aminothiazol-5-yl)-6-((2R,3S,6S)-2,3,6-trimethylmorpholino)-1,3,5-triazin-2-yl)-oxy)-3-fluoro-N,N-dimethylbenzamide]
- inhibition at 1 µM (Recombinant mTOR (FRAP1)): < 50%

SMILES: CN(C)C(=O)c1ccc(Oc2nc(-c3cnc(N)s3)nc(N3CCOCC34CCCC4)n2)c(F)c1 [Compound 10083, 4-((4-(2-Aminothiazol-5-yl)-6-(9-oxa-6-azaspiro[4.5]decan-6-yl)-1,3,5-triazin-2-yl)oxy)-3-fluoro-N,N-dimethylbenzamide]
- IC50 [1]: < 1000 nM

SMILES: C[C@H]1COCCN1c1nc(Oc2ccc(C(=O)N(C)C)cc2)nc(-c2cnc(NC(=O)c3cccnc3)s2)n1 [Compound 10094, (S)-N-(5-(4-(4-(dimethylcarbamoyl)phenoxy)-6-(3-methylmorpholino)-1,3,5-triazin-2-yl)thiazol-2-yl)nicotinamide]
- inhibition at 1 µM [1]: < 50%

SMILES: CC1COCCN1c1nc(Oc2ccc(C(=O)N(C)C)cc2F)nc(-c2ccc(N)nc2)n1 (stereo not shown) [Compound 10207, 4-((4-(6-aminopyridin-3-yl)-6-(3-methylmorpholino)-1,3,5-triazin-2-yl)oxy)-3-fluoro-N,N-dimethylbenzamide]
- IC50 (Recombinant mTOR (FRAP1)): < 1000 nM

SMILES: CN(C)C(=O)c1ccc(Oc2nc(-c3ccc(NN)nc3)nc(N3CCOCC3)n2)cc1 [Compound 10177, 4-((4-(6-hydrazinylpyridin-3-yl)-6-morpholino-1,3,5-triazin-2-yl)oxy)-N,N-dimethylbenzamide]
- IC50 [1]: < 1000 nM

SMILES: CN(C)C(=O)c1cccc(Oc2nc(-c3ccc(N)nc3)nc(N3CCOCC3)n2)c1 [Compound 10183, 3-((4-(6-aminopyridin-3-yl)-6-morpholino-1,3,5-triazin-2-yl)oxy)-N,N-dimethylbenzamide]
- IC50 [1]: < 1000 nM

SMILES: Nc1ncc(-c2nc(N3CCOCC3)nc(N3CCNC(=O)CC3)n2)s1 [Compound 10198, 1-(4-(2-aminothiazol-5-yl)-6-morpholino-1,3,5-triazin-2-yl)-1,4-diazepan-5-one]
- IC50 [1]: < 1000 nM

SMILES: C[C@H]1CN(c2nc(Oc3ccc(C(=O)N(C)C)cc3F)nc(-c3cnc(N)s3)n2)C[C@H](C)O1 [Compound 10084, 4-((4-2-Aminothiazol-5-yl)-6-((2S,6S)-2,6-dimethylmorpholino)-1,3,5-triazin-2-yl)oxy-3-fluoro-N,N-dimethylbenzamide]
- IC50 (Recombinant mTOR (FRAP1)): < 1000 nM

SMILES: Nc1ccc(-c2nc(SCc3ccccc3)nc(N3CCOCC3)n2)cn1 [Compound 10175, 5-(4-(benzylthio)-6-morpholino-1,3,5-triazin-2-yl)pyridine-2-amine]
- IC50 [1]: < 1000 nM

SMILES: CN(C)C(=O)N1CCC(Oc2nc(-c3ccc(N)nc3)nc(N3CCOCC3)n2)C1 (stereo not shown) [Compound 10186, 3-((4-(6-aminopyridin-3-yl)-6-morpholino-1,3,5-triazin-2-yl)oxy)-N,N-dimethylpyrrolidine-1-carboxamide]
- IC50 [1]: < 1000 nM

SMILES: CN(C)C(=O)Cc1cccc(Oc2nc(-c3ccc(N)nc3)nc(N3CCOCC3)n2)c1 [Compound 10184, 2-(3-((4-(6-aminopyridin-3-yl)-6-morpholino-1,3,5-triazin-2-yl)oxy)phenyl)-N,N-dimethylacetamide]
- IC50 [1]: < 1000 nM

SMILES: C[C@@H]1CN(c2nc(Oc3ccc(C(=O)N(C)C)cc3F)nc(-c3cnc(N)s3)n2)[C@H](C)CO1 [Compound 10205, 4-((4-(2-aminothiazol-5-yl)-6-((2R,5R)-2,5-dimethylmorpholino)-1,3,5-triazin-2-yl)oxy)-3-fluoro-N,N-dimethylbenzamide]
- IC50 (Recombinant mTOR (FRAP1)): < 1000 nM

SMILES: CN(C)C(=O)N1CCC(COc2nc(-c3ccc(N)nc3)nc(N3CCOCC3)n2)C1 (stereo not shown) [Compound 10187, 3-(((4-(6-aminopyridin-3-yl)-6-morpholino-1,3,5-triazin-2-yl)oxy)methyl)-N,N-dimethylpyrrolidine-1-carboxamide]
- IC50 [1]: < 1000 nM
